Laboratory results from the supplement of paper PMC10627819.

What was measured:
[1] = system: B. subtilis 168; experiment: fitness (endpoint OD595 vs no drug) (fraction); higher = more growth
Outline: (§1)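 Growth medium was TSB, LB Lennox or CY, and plates were kept at 37 °C. Inoculation was at OD595 0.01 in 384-well plates, at 30 µl per well or 55 µl for S. pneumoniae. OD595 was monitored every 30 min for 14 h and background-subtracted using the first reading. Fitness is the optical density on entering stationary phase divided by the robust mean of no-drug controls, with values capped at 1.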

[2] = system: S. aureus DSM 20231; experiment: as above
Outline: as §1

[3] = system: S. aureus Newman; experiment: as above
Outline: as §1

[4] = system: S. pneumoniae D39V; experiment: as above
Outline: as §1

[5] = system: B. subtilis 168; experiment: Bliss interaction score (quartile over a dose matrix) (fitness difference); higher = more antagonism (negative = synergy)
Outline: (§2)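 The Bliss score is observed fitness minus expected fitness, where the expected value is the product of single-drug fitness values inferred from combination data. Fitness is OD595 at entry into stationary phase normalised to the plate's robust no-drug mean and capped at 1. Scores are reported as quartiles spanning technical, biological and donor/recipient replicates.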

[6] = system: S. aureus DSM 20231; experiment: as above
Outline: as §2

[7] = system: S. aureus Newman; experiment: as above
Outline: as §2

[8] = system: S. pneumoniae D39V; experiment: as above
Outline: as §2
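For Bliss interaction score (quartile over a dose matrix) in this document: first quartile when negative (synergy) and third quartile when positive (antagonism).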
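For fitness (endpoint OD595 vs no drug) in this document: OD595 on entry to stationary phase over no-drug wells; at most 1.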

C[n+]1ccc(-c2cc[n+](C)cc2)cc1 [Paraquat] + Cc1cc(NS(=O)(=O)c2ccc(N)cc2)no1 [Sulfamethoxazol]
fitness, one replicate
Conditions | first compound 1.25 µg/mL | first compound 2.5 µg/mL | first compound 5 µg/mL
[1], partner 0.5 µg/mL | 0.922 | ≥ 1 | 0.82
[3], partner 8 µg/mL | 0.949 | 0.818 | 0.874

fitness
Conditions | partner 1 µg/mL | partner 2 µg/mL | partner 4 µg/mL
[1], first compound 1.25 µg/mL | 0.928 | 0.901 | 0.976
[1], first compound 2.5 µg/mL | 0.901 | 0.883 | 0.911
[1], first compound 5 µg/mL | 0.821 | 0.823 | 0.853
[2], first compound 1.25 µg/mL | 0.952 | 0.959 | 0.946
[2], first compound 2.5 µg/mL | 0.882 | 0.866 | 0.842
[2], first compound 5 µg/mL | 0.812 | 0.868 | 0.885
[3], first compound 1.25 µg/mL | 0.977 | 0.946 | 0.915
[3], first compound 2.5 µg/mL | 0.985 | 0.964 | –
[3], first compound 5 µg/mL | 0.928 | 0.969 | 0.881
[4], first compound 1.5 µg/mL | 0.979 | 0.971 | 0.926
[4], first compound 3 µg/mL | 0.966 | 0.992 | 0.931
[4], first compound 6 µg/mL | 0.995 | 0.986 | 0.94

Conditions | Bliss interaction score
[5] | 0.0341
[6] | -0.0548
[7] | 0.0523
[8] | -0.0314

Cn1c2cccc(=O)c-2nc2ccccc21 [Pyocyanin] + CC1=C\[C@@H](O)CC(=O)Cc2nc(co2)C(=O)N2CCC=C2C(=O)O[C@H](C(C)C)[C@H](C)/C=C/C(=O)NC\C=C\1 [Virginiamycin M1]
fitness
Conditions | [1] | [2] | [3] | [4]
first compound 0.325 µg/mL, partner 0.5 µg/mL | – | – | – | ≥ 1
first compound 0.325 µg/mL, partner 1 µg/mL | – | – | – | ≥ 1
first compound 0.325 µg/mL, partner 2 µg/mL | – | – | – | 0.969
first compound 0.65 µg/mL, partner 0.5 µg/mL | – | – | – | ≥ 1
first compound 0.65 µg/mL, partner 1 µg/mL | – | – | – | ≥ 1
first compound 0.65 µg/mL, partner 2 µg/mL | – | – | – | 0.992
first compound 1.25 µg/mL, partner 0.0625 µg/mL | 0.924 | 0.883 | 0.823 | –
first compound 1.25 µg/mL, partner 0.125 µg/mL | 0.89 | 0.923 | 0.833 | –
first compound 1.25 µg/mL, partner 0.25 µg/mL | 0.885 | 0.808 | 0.823 | –
first compound 1.3 µg/mL, partner 2 µg/mL | – | – | – | 0.828
first compound 2.5 µg/mL, partner 0.0625 µg/mL | 0.862 | 0.854 | 0.752 | –
first compound 2.5 µg/mL, partner 0.125 µg/mL | 0.84 | 0.86 | 0.766 | –
first compound 2.5 µg/mL, partner 0.25 µg/mL | 0.857 | 0.89 | 0.776 | –
first compound 5 µg/mL, partner 0.0625 µg/mL | 0.734 | 0.562 | 0.369 | –
first compound 5 µg/mL, partner 0.125 µg/mL | 0.741 | 0.589 | 0.422 | –
first compound 5 µg/mL, partner 0.25 µg/mL | 0.758 | 0.621 | 0.352 | –

fitness, one replicate
Conditions | partner 0.15 µg/mL | partner 0.3 µg/mL | partner 0.5 µg/mL | partner 1 µg/mL | partner 2 µg/mL
[2], first compound 1.25 µg/mL | – | – | 0.913 | 0.882 | –
[2], first compound 2.5 µg/mL | – | – | 0.816 | 0.787 | –
[2], first compound 5 µg/mL | – | – | 0.556 | 0.616 | –
[3], first compound 1.25 µg/mL | – | – | 0.921 | ≥ 1 | 0.92
[3], first compound 2.5 µg/mL | – | – | 0.939 | 0.965 | 0.952
[3], first compound 5 µg/mL | – | – | 0.844 | 0.885 | 0.734
[4], first compound 0.325 µg/mL | ≥ 1 | 0.988 | – | – | –
[4], first compound 0.65 µg/mL | ≥ 1 | 0.994 | – | – | –
[4], first compound 1.3 µg/mL | 0.935 | 0.859 | 0.878 | 0.815 | –

Conditions | Bliss interaction score
[5] | -0.0635
[6] | -0.0636
[7] | 0.0515
[8] | 0.0505

Cn1c2cccc(=O)c-2nc2ccccc21 [Pyocyanin] + CN(N=O)C(=O)N[C@@H](C=O)[C@@H](O)[C@H](O)[C@H](O)CO [Streptozotocin]
fitness, one replicate
Conditions | partner 0.15 µg/mL | partner 0.3 µg/mL | partner 0.6 µg/mL | partner 1.2 µg/mL | partner 2.4 µg/mL | partner 4.8 µg/mL
[1], first compound 1.25 µg/mL | 0.99 | 0.918 | 0.96 | – | – | –
[1], first compound 2.5 µg/mL | 0.777 | 0.903 | 0.873 | – | – | –
[1], first compound 5 µg/mL | 0.687 | 0.729 | 0.777 | – | – | –
[4], first compound 1.3 µg/mL | – | – | – | 0.626 | 0.683 | 0.783

fitness
Conditions | partner 0.15 µg/mL | partner 0.3 µg/mL | partner 0.6 µg/mL | partner 1.2 µg/mL | partner 2.4 µg/mL | partner 4.8 µg/mL
[2], first compound 1.25 µg/mL | 0.836 | 0.852 | 0.711 | – | – | –
[2], first compound 2.5 µg/mL | 0.803 | 0.772 | 0.676 | – | – | –
[2], first compound 5 µg/mL | 0.626 | 0.617 | 0.517 | – | – | –
[3], first compound 1.25 µg/mL | 0.788 | 0.633 | 0.494 | – | – | –
[3], first compound 2.5 µg/mL | 0.695 | 0.591 | 0.385 | – | – | –
[3], first compound 5 µg/mL | 0.265 | 0.249 | 0.167 | – | – | –
[4], first compound 0.325 µg/mL | – | – | – | 0.951 | 0.912 | 0.928
[4], first compound 0.65 µg/mL | – | – | – | 0.973 | 0.964 | 0.965

Conditions | Bliss interaction score
[5] | -0.0597
[6] | 0.0692
[7] | -0.0417
[8] | -0.0715

Cn1c2cccc(=O)c-2nc2ccccc21 [Pyocyanin] + CN[C@@H]1[C@H](O)[C@H](NC)[C@H]2O[C@@]3(O)C(=O)C[C@@H](C)O[C@H]3O[C@@H]2[C@H]1O [Spectinomycin]
fitness
Conditions | partner 2 µg/mL | partner 4 µg/mL | partner 8 µg/mL | partner 16 µg/mL
[1], first compound 1.25 µg/mL | 0.907 | 0.914 | 0.861 | –
[1], first compound 2.5 µg/mL | 0.887 | 0.876 | 0.857 | –
[1], first compound 5 µg/mL | 0.762 | 0.757 | 0.708 | –
[2], first compound 1.25 µg/mL | – | 0.884 | 0.93 | 0.82
[2], first compound 2.5 µg/mL | – | 0.868 | 0.86 | 0.716
[2], first compound 5 µg/mL | – | 0.688 | 0.726 | 0.582
[3], first compound 1.25 µg/mL | – | 0.853 | 0.867 | 0.853
[3], first compound 2.5 µg/mL | – | 0.761 | 0.766 | 0.697
[4], first compound 0.325 µg/mL | – | 0.995 | 0.955 | –
[4], first compound 0.65 µg/mL | – | 0.96 | 0.944 | –

fitness, one replicate
Conditions | [2] | [3] | [4]
first compound 0.325 µg/mL, partner 16 µg/mL | – | – | 0.729
first compound 0.65 µg/mL, partner 16 µg/mL | – | – | 0.885
first compound 1.25 µg/mL, partner 32 µg/mL | 0.656 | 0.591 | –
first compound 1.25 µg/mL, partner 64 µg/mL | 0.0503 | 0.11 | –
first compound 1.3 µg/mL, partner 4 µg/mL | – | – | 0.776
first compound 1.3 µg/mL, partner 8 µg/mL | – | – | 0.792
first compound 2.5 µg/mL, partner 32 µg/mL | 0.638 | 0.489 | –
first compound 2.5 µg/mL, partner 64 µg/mL | 0.0416 | 0.0964 | –
first compound 5 µg/mL, partner 32 µg/mL | 0.342 | 0.268 | –
first compound 5 µg/mL, partner 64 µg/mL | 0.0295 | 0.0535 | –

Conditions | Bliss interaction score
[5] | -0.0432
[6] | -0.0492
[7] | 0.0628
[8] | 0.0496

Cn1c2cccc(=O)c-2nc2ccccc21 [Pyocyanin] + Cc1cc(NS(=O)(=O)c2ccc(N)cc2)no1 [Sulfamethoxazol]
one replicate
Conditions | fitness
[1], first compound 1.25 µg/mL, partner 0.5 µg/mL | 0.915
[1], first compound 2.5 µg/mL, partner 0.5 µg/mL | 0.884
[1], first compound 5 µg/mL, partner 0.5 µg/mL | 0.632
[3], first compound 1.25 µg/mL, partner 8 µg/mL | 0.911
[3], first compound 2.5 µg/mL, partner 8 µg/mL | 0.858
[3], first compound 5 µg/mL, partner 8 µg/mL | 0.778
[4], first compound 1.3 µg/mL, partner 1 µg/mL | 0.637
[4], first compound 1.3 µg/mL, partner 2 µg/mL | 0.679
[4], first compound 1.3 µg/mL, partner 4 µg/mL | 0.615

fitness
Conditions | partner 1 µg/mL | partner 2 µg/mL | partner 4 µg/mL
[1], first compound 1.25 µg/mL | 0.869 | 0.862 | 0.877
[1], first compound 2.5 µg/mL | 0.852 | 0.738 | 0.868
[1], first compound 5 µg/mL | 0.669 | 0.685 | 0.774
[2], first compound 1.25 µg/mL | 0.929 | 0.939 | 0.925
[2], first compound 2.5 µg/mL | 0.831 | 0.903 | 0.893
[2], first compound 5 µg/mL | 0.641 | 0.674 | 0.689
[4], first compound 0.325 µg/mL | 0.983 | ≥ 1 | 0.96
[4], first compound 0.65 µg/mL | 0.936 | 0.975 | 0.933

Conditions | Bliss interaction score
[5] | -0.063
[6] | 0.0564
[7] | -0.0714
[8] | -0.0551
